One data set has as its system VEGF. Nature of the data set: Expression level of VEGF, target gene of HIF-1α. As to conditions: earlier finding of the inventors.
Data set [1] relates to capsaicin-induced contraction. The settings on record: isolated mouse rectum; J. Nat. Med. 65 (2011) 157-165; cited from earlier work.
In the next data set the test system is CD31. The data set can be described thus: Expression level of CD31 by immunohistochemical analysis of cancer cell. In kind it is in vivo, mice. As to conditions: cancer tissue after dosing voacangine or sunitinib; FIGS. 14 and 15. How it is done:
Immunohistochemical analysis was performed to find an effect of voacangine against pathological angiogenesis of a cancer cell.
CD31 or Platelet Endothelial Cell Adhesion Molecule-1 (PECAM-1) are known as being expressed on the surface of a hematoblast such as platelet and naive T cell, natural killer cell, granulocyte, monocyte and cell-to-cell junction of endothelial as transmembrane glycoprotein of 130 kDa type belonging to immunoglobulin super-family.

Data set [2] in a line: Voacangine distribution in tumors, livers and kidneys by MALDI imaging mass spectrometry. In kind it is in vivo, mice. The settings on record: four hours after treating voacangine, FIG. 5. The text has this: After surgically removing tumors, livers, and kidneys from mouse models after four hours after treating voacangine in Embodiment 3, a specimen was manufactured to perform MALDI mass spectrometry and immunofluorescence with H&E straining and the result was shown in FIG. 5.

A further data set relates to U87MG. The data set can be described thus: Variation of cancer size in U87MG cancer-diseased animal model. As to conditions: U87MG xenograft mice; voacangine 10 mg/kg i.p. every day for 12 days; compared with vehicle and sunitinib 40 mg/kg p.o.; FIG. 4.
The subject of data set [3] is Human Umbilical Vascular Endothelial Cell (HUVEC). Nature of the data set: In vitro and in vivo angiogenesis inhibition (cell-based HUVEC screening). The settings on record: nontoxic dose, earlier finding of the inventors. The source says: The inventors screened 300 crude extracts which are taken from a natural plant that is effective in proliferating Human Umbilical Vascular Endothelial Cell (HUVEC) by using a cell-based screening technique.

The subject of another data set is HIF-1α. The data set can be described thus: Expression level of HIF-1α. As to conditions: earlier finding of the inventors.

Method for U87MG: A cell strain U87MG, which is a kind of human glioglastoma multiforme purchased from American Type Culture Collection (ATCC), was cultivated in a medium to which Phosphate-Buffered Saline (PBS): Matrigel (1:1) is added.
The cultivated cell strain U87MG of 5×10^6 was merged with PBS:Matrigel (1:1) of 100 μl and the mixture was injected into athymic nude mice for two weeks to induce growth of a cancer cell.

With `CC[C@H]1C[C@@H]2C[N@]3CCc4c([nH]c5ccc(OC)cc45)[C@](C(=O)OC)(C2)C13` [voacangine], the “expression level of VEGF” value in the data set on VEGF is recorded as “dose-dependently inhibited”. For the same molecule, in data set [1], the capsaicin-induced contraction entry is listed as “dose-dependently inhibiting”. Moreover, in the data set with CD31, the CD31 expression result is “greatly reduced in expression”. The “localization of voacangine in livers, kidneys and cancer cells” value in data set [2] is “more concentrated in the cancer cells than the livers and kidneys”. Moreover, the “cancer size after dosage” value with U87MG is reported as “greatly reduced”. The angiogenesis inhibition result in data set [3] is “inhibiting in vitro and in vivo angiogenesis by a nontoxic dose”. The “expression level of HIF-1α” value in the data set with HIF-1α is recorded as “dose-dependently inhibited”.

Turning to `CCN(CC)CCNC(=O)c1c(C)[nH]c(/C=C2\C(=O)Nc3ccc(F)cc32)c1C` [sunitinib, Sunitinib malate, reference compound], the CD31 expression entry in the data set with CD31 is “greatly reduced in expression”.

The values are drawn from patent US10591487B2, “Small molecule detection and localization method based on MALDI imaging mass spectrometry” (INDUSTRY-ACADEMIC COOPERATION FOUNDATION, YONSEI UNIVERSITY, priority 2015, dated 2020).
